# Assay results reported in patent publication US8119690B2, “Polyunsaturated fatty acid monoglycerides, derivatives, and uses thereof” (Centre de Recherche sur les Biotechnologies Marines, priority 2007, dated 2012).
# Tests used:
# [1] = human, in vivo
# Method: Controlled amount of boiled pasta was eaten after the 4 h time point. An initial blood sample (400 μl) was collected using a lancet at a fingertip into heparin tubes followed by samples at 1, 2, 3, 4, 5, 6, 7 and 8 hour after ingestion. Plasma was separated and immediately analysed for fatty acid composition.
# The relative bioavailability of fatty acids from composition 2 compared to fish oil is calculated with the formula:
# The AUC (calculates area under the curve for concentration vs. time data) is calculated using linear trapezoidal rule. […] The relative bioavailability of compound 1 and compound 5 is calculated with the same formula:
# [2] = system: TNF-α; assay: LPS-induced TNF-α release by THP-1 monocyte cells (ELISA); assay type: cell-based, human; settings: THP-1 cells, 100 ng/ml LPS, 4 hours; vehicle gives 400 pg/ml; composition 3 10 μg/ml, curcumin 5 μg/ml
# Method: Composition 3 (comprising compounds 1 (11%) and 5 (89%)) at final concentration of 10 μg/ml, curcumin (5 μg/ml) and a 1:1 mixture of composition 3 (10 μg/ml) and curcumin (5 μg/ml) in DMSO (1%) was used for the in vitro assay. Composition 3 prepared according to the same procedure as previously described in Example 2)
# The in vitro assay allows evaluation of the potential anti-inflammatory effects of compounds on the induced-release of pro-inflammatory mediator by monocyte cells. Typical human monocyte THP-1 cells, involved in inflammatory processes, are used in this assay. Measurement of pro-inflammatory mediator TNF-α is performed by ELISA (manufactured by R&D Systems) with artificial induction of pro-inflammatory agents by LPS (E. Coli O55:B5) during 4 hours. Known anti-inflammatory agent dexametazone was used as positive control.
# [3] = system: PC-3 human prostate cancer cell line; assay: in vitro cell viability assay (SRB), PC-3; assay type: cell-based; settings: PC-3, at 294 μg/ml, 72 hours, read-out: growth inhibition
# Method: (§1) The cell viability assay is performed to measure the relative cell viability status of cancer cells upon exposure to test compounds in comparison to a positive control (etoposide) and a negative control (vehicule). Adherent cells growing in 96-well plates are exposed to test compounds for 3 days (72 hours). […] Test compounds (composition 1 comprising compounds 1, 5 and 6) as well as positive and negative controls were tested in parallel on the same culture plate. All conditions are tested in triplicate. […] Inhibition of 50% of cell growth compared to basal condition is the lower limit indicating a positive biological response (considered as a hit). After the incubation time, total protein content is quantified following staining with the anionic dye sulforhodamine B (SRB). The detection of […], is completed by a microplate reader. […] The amount of […] is directly proportional to the number of living cells in culture. […] Cells were trypsinized using 0.25% trypsine (w/v)/0.53 mM EDTA solution (Hyclone), counted and plated at densities between 1000 and 3000 cells per well in flat bottom 96-well clear plates (Becton Dickinson) in 100 μl of appropriate culture medium supplemented with fetal bovine serum (Hyclone). […] Absorbance was read at 515 nm using a 96-well plate Multiskan Spectrum […] (Thermo Electron Corporation). […]
# [4] = system: HCT-15 human colon cancer cell line; assay: in vitro cell viability assay (SRB), HCT-15; assay type: cell-based; settings: HCT-15, at 294 μg/ml, 72 hours, read-out: growth inhibition
# Method: as §1
# [5] = system: A-549 human lung cancer cell line; assay: in vitro cell viability assay (SRB), A-549; assay type: cell-based; settings: A549, A-549, at 294 μg/ml, 72 hours, read-out: growth inhibition
# Method: as §1
# [6] = system: BT-549 human breast cancer cell line; assay: in vitro cell viability assay (SRB), BT-549; assay type: cell-based; settings: BT-549, at 294 μg/ml, 72 hours, read-out: growth inhibition
# Method: as §1
compound,measurement,setting,value
CC/C=C\C/C=C\C/C=C\C/C=C\C/C=C\CCCCCC(=O)OCC(O)CO (stereo not shown) [compound 1],relative bioavailability compared to compound 5,[1],2.20
COc1cc(/C=C/C(=O)CC(=O)/C=C/c2ccc(O)c(OC)c2)ccc1O [curcumin],TNF-α measured,[2],100 pg/mL
C[C@@H]1C[C@H]2[C@@H]3CCC4=CC(=O)C=C[C@]4(C)[C@@]3(F)[C@@H](O)C[C@]2(C)[C@@]1(O)C(=O)CO [dexametazone],TNF-α measured,[2],125 pg/mL
COc1cc([C@@H]2c3cc4c(cc3[C@@H](O[C@@H]3O[C@@H]5CO[C@@H](C)O[C@H]5[C@H](O)[C@H]3O)[C@H]3COC(=O)[C@H]23)OCO4)cc(OC)c1O [etoposide],inhibition at 294 µg/mL,[3],100%
same,inhibition at 294 µg/mL,[4],100%
same,inhibition at 294 µg/mL,[5],100%
same,inhibition at 294 µg/mL,[6],100%
